Source: the NIST ThermoML archive (doi:10.1021/je201051q)

Assay: xn = mol fraction of the nth substance listed
Settings: isochoric method

C=C(F)C(F)(F)F [2,3,3,3-tetrafluoro-1-propene] + O=C=O
Settings | molar volume [m3/mol]
223.07 K, 420.2 kPa, Fluid (supercritical or subcritical phases), x2 = 0.662 | 0.001227
223.08 K, 197.6 kPa, Fluid (supercritical or subcritical phases), x2 = 0.365 | 0.002253
223.28 K, 95.7 kPa, Fluid (supercritical or subcritical phases), x2 = 0.16 | 0.002938
223.62 K, 147.7 kPa, Fluid (supercritical or subcritical phases), x2 = 0.266 | 0.002569
223.63 K, 312 kPa, Fluid (supercritical or subcritical phases), x2 = 0.574 | 0.002153
224.2 K, 460.3 kPa, Fluid (supercritical or subcritical phases), x2 = 0.754 | 0.001747
224.91 K, 61.7 kPa, Fluid (supercritical or subcritical phases), x2 = 0.051 | 0.002894
225.14 K, 271.4 kPa, Fluid (supercritical or subcritical phases), x2 = 0.48 | 0.002063
232.92 K, 331.8 kPa, Fluid (supercritical or subcritical phases), x2 = 0.48 | 0.002063
232.97 K, 252.9 kPa, Fluid (supercritical or subcritical phases), x2 = 0.365 | 0.002254
232.97 K, 559 kPa, Fluid (supercritical or subcritical phases), x2 = 0.662 | 0.001227
233 K, 129.7 kPa, Fluid (supercritical or subcritical phases), x2 = 0.16 | 0.002939
233.01 K, 387.5 kPa, Fluid (supercritical or subcritical phases), x2 = 0.574 | 0.002154
233.06 K, 576 kPa, Fluid (supercritical or subcritical phases), x2 = 0.754 | 0.001747
233.09 K, 190.8 kPa, Fluid (supercritical or subcritical phases), x2 = 0.266 | 0.00257
233.25 K, 86.7 kPa, Fluid (supercritical or subcritical phases), x2 = 0.051 | 0.002895
242.68 K, 174.3 kPa, Fluid (supercritical or subcritical phases), x2 = 0.16 | 0.00294
242.84 K, 412.5 kPa, Fluid (supercritical or subcritical phases), x2 = 0.48 | 0.002064
242.95 K, 711.4 kPa, Fluid (supercritical or subcritical phases), x2 = 0.662 | 0.001228
242.99 K, 322.1 kPa, Fluid (supercritical or subcritical phases), x2 = 0.365 | 0.002255
243.03 K, 246 kPa, Fluid (supercritical or subcritical phases), x2 = 0.266 | 0.002571
243.04 K, 710.6 kPa, Fluid (supercritical or subcritical phases), x2 = 0.754 | 0.001748
243.07 K, 124.7 kPa, Fluid (supercritical or subcritical phases), x2 = 0.051 | 0.002896
243.08 K, 479.4 kPa, Fluid (supercritical or subcritical phases), x2 = 0.574 | 0.002155
252.69 K, 399.3 kPa, Fluid (supercritical or subcritical phases), x2 = 0.365 | 0.002256
252.82 K, 234.8 kPa, Fluid (supercritical or subcritical phases), x2 = 0.16 | 0.002942
252.82 K, 504.1 kPa, Fluid (supercritical or subcritical phases), x2 = 0.48 | 0.002065
252.9 K, 876.2 kPa, Fluid (supercritical or subcritical phases), x2 = 0.662 | 0.001228
252.95 K, 315.1 kPa, Fluid (supercritical or subcritical phases), x2 = 0.266 | 0.002572
252.97 K, 179 kPa, Fluid (supercritical or subcritical phases), x2 = 0.051 | 0.002897
253.03 K, 574.3 kPa, Fluid (supercritical or subcritical phases), x2 = 0.574 | 0.002156
253.04 K, 842.3 kPa, Fluid (supercritical or subcritical phases), x2 = 0.754 | 0.001749
262.58 K, 492.3 kPa, Fluid (supercritical or subcritical phases), x2 = 0.365 | 0.002257
262.8 K, 313 kPa, Fluid (supercritical or subcritical phases), x2 = 0.16 | 0.002943
262.86 K, 610.6 kPa, Fluid (supercritical or subcritical phases), x2 = 0.48 | 0.002066
262.94 K, 1044 kPa, Fluid (supercritical or subcritical phases), x2 = 0.662 | 0.001229
262.95 K, 401.7 kPa, Fluid (supercritical or subcritical phases), x2 = 0.266 | 0.002573
262.96 K, 686 kPa, Fluid (supercritical or subcritical phases), x2 = 0.574 | 0.002157
263.01 K, 980.1 kPa, Fluid (supercritical or subcritical phases), x2 = 0.754 | 0.00175
263.06 K, 253.3 kPa, Fluid (supercritical or subcritical phases), x2 = 0.051 | 0.002899
272.66 K, 609 kPa, Fluid (supercritical or subcritical phases), x2 = 0.365 | 0.002258
272.75 K, 412.9 kPa, Fluid (supercritical or subcritical phases), x2 = 0.16 | 0.002944
272.82 K, 813.7 kPa, Fluid (supercritical or subcritical phases), x2 = 0.574 | 0.002158
272.83 K, 1223.1 kPa, Fluid (supercritical or subcritical phases), x2 = 0.662 | 0.001229
272.84 K, 734.4 kPa, Fluid (supercritical or subcritical phases), x2 = 0.48 | 0.002067
272.93 K, 348.1 kPa, Fluid (supercritical or subcritical phases), x2 = 0.051 | 0.0029
272.93 K, 509.9 kPa, Fluid (supercritical or subcritical phases), x2 = 0.266 | 0.002574
272.98 K, 1122.7 kPa, Gas, x2 = 0.754 | 0.00175
282.56 K, 466.4 kPa, Fluid (supercritical or subcritical phases), x2 = 0.051 | 0.002901
282.57 K, 537.9 kPa, Fluid (supercritical or subcritical phases), x2 = 0.16 | 0.002945
282.62 K, 884.2 kPa, Fluid (supercritical or subcritical phases), x2 = 0.48 | 0.002068
282.63 K, 1179.9 kPa, Gas, x2 = 0.754 | 0.001751
282.64 K, 1417.7 kPa, Fluid (supercritical or subcritical phases), x2 = 0.662 | 0.00123
282.69 K, 751.6 kPa, Fluid (supercritical or subcritical phases), x2 = 0.365 | 0.002259
282.75 K, 641.4 kPa, Fluid (supercritical or subcritical phases), x2 = 0.266 | 0.002575
282.88 K, 940.5 kPa, Gas, x2 = 0.574 | 0.002159
292.47 K, 673.8 kPa, Gas, x2 = 0.16 | 0.002947
292.6 K, 1003.3 kPa, Gas, x2 = 0.48 | 0.002069
292.67 K, 1237.7 kPa, Gas, x2 = 0.754 | 0.001752
292.69 K, 1614 kPa, Gas, x2 = 0.662 | 0.001231
292.7 K, 623 kPa, Fluid (supercritical or subcritical phases), x2 = 0.051 | 0.002902
292.75 K, 804.6 kPa, Fluid (supercritical or subcritical phases), x2 = 0.266 | 0.002577
292.85 K, 906.8 kPa, Gas, x2 = 0.365 | 0.00226
292.91 K, 1004.6 kPa, Gas, x2 = 0.574 | 0.00216
302.61 K, 742.4 kPa, Gas, x2 = 0.16 | 0.002948
302.61 K, 1055.6 kPa, Gas, x2 = 0.48 | 0.00207
302.67 K, 1296 kPa, Gas, x2 = 0.754 | 0.001753
302.81 K, 736.5 kPa, Gas, x2 = 0.051 | 0.002904
302.86 K, 1049.3 kPa, Gas, x2 = 0.574 | 0.002161
302.88 K, 856.1 kPa, Gas, x2 = 0.266 | 0.002578
302.89 K, 1732.2 kPa, Gas, x2 = 0.662 | 0.001231
302.96 K, 976.1 kPa, Gas, x2 = 0.365 | 0.002261
303.05 K, 738 kPa, Gas, x2 = 0.051 | 0.002904
307.54 K, 758.8 kPa, Gas, x2 = 0.16 | 0.002949
312.7 K, 1352.4 kPa, Gas, x2 = 0.754 | 0.001753
312.79 K, 1094.3 kPa, Gas, x2 = 0.574 | 0.002162
312.82 K, 895.4 kPa, Gas, x2 = 0.266 | 0.002579
312.84 K, 1814.8 kPa, Gas, x2 = 0.662 | 0.001232
312.92 K, 1020.4 kPa, Gas, x2 = 0.365 | 0.002262
312.94 K, 773.7 kPa, Gas, x2 = 0.051 | 0.002905
313.12 K, 778.4 kPa, Gas, x2 = 0.16 | 0.002949
313.12 K, 1111.4 kPa, Gas, x2 = 0.48 | 0.002071
322.6 K, 1062.1 kPa, Gas, x2 = 0.365 | 0.002263
322.75 K, 808.1 kPa, Gas, x2 = 0.051 | 0.002906
323.09 K, 811.8 kPa, Gas, x2 = 0.16 | 0.002951
323.1 K, 934.8 kPa, Gas, x2 = 0.266 | 0.00258
323.1 K, 1139.4 kPa, Gas, x2 = 0.574 | 0.002163
323.1 K, 1407.6 kPa, Gas, x2 = 0.754 | 0.001754
323.1 K, 1898.7 kPa, Gas, x2 = 0.662 | 0.001232
323.11 K, 1157.2 kPa, Gas, x2 = 0.48 | 0.002071
333.06 K, 1183.4 kPa, Gas, x2 = 0.574 | 0.002164
333.07 K, 1106.6 kPa, Gas, x2 = 0.365 | 0.002264
333.08 K, 844.9 kPa, Gas, x2 = 0.16 | 0.002952
333.08 K, 972.6 kPa, Gas, x2 = 0.266 | 0.002581
333.08 K, 1202.8 kPa, Gas, x2 = 0.48 | 0.002072
333.08 K, 1460.2 kPa, Gas, x2 = 0.754 | 0.001755
333.08 K, 1979.1 kPa, Gas, x2 = 0.662 | 0.001233
333.09 K, 843.3 kPa, Gas, x2 = 0.051 | 0.002907
343.03 K, 1149.4 kPa, Gas, x2 = 0.365 | 0.002265
343.04 K, 1010.2 kPa, Gas, x2 = 0.266 | 0.002582
343.04 K, 1227 kPa, Gas, x2 = 0.574 | 0.002165
343.05 K, 877.5 kPa, Gas, x2 = 0.16 | 0.002953
343.05 K, 2058.6 kPa, Gas, x2 = 0.662 | 0.001233
343.06 K, 877.3 kPa, Gas, x2 = 0.051 | 0.002909
343.07 K, 1512.6 kPa, Gas, x2 = 0.754 | 0.001756
343.1 K, 1248 kPa, Gas, x2 = 0.48 | 0.002073
352.97 K, 1292.5 kPa, Gas, x2 = 0.48 | 0.002074
352.99 K, 909.5 kPa, Gas, x2 = 0.16 | 0.002954
352.99 K, 1191.4 kPa, Gas, x2 = 0.365 | 0.002266
352.99 K, 1269.8 kPa, Gas, x2 = 0.574 | 0.002166
352.99 K, 2136.6 kPa, Gas, x2 = 0.662 | 0.001234
353 K, 1046.2 kPa, Gas, x2 = 0.266 | 0.002583
353.02 K, 910.7 kPa, Gas, x2 = 0.051 | 0.00291
353.02 K, 1564.1 kPa, Gas, x2 = 0.754 | 0.001756
362.92 K, 943.3 kPa, Gas, x2 = 0.051 | 0.002911
362.92 K, 1082.5 kPa, Gas, x2 = 0.266 | 0.002584
362.92 K, 1232.6 kPa, Gas, x2 = 0.365 | 0.002267
362.94 K, 1311.6 kPa, Gas, x2 = 0.574 | 0.002167
362.96 K, 941.6 kPa, Gas, x2 = 0.16 | 0.002956
362.96 K, 1337.1 kPa, Gas, x2 = 0.48 | 0.002075
362.96 K, 1615.2 kPa, Gas, x2 = 0.754 | 0.001757
362.97 K, 2214.8 kPa, Gas, x2 = 0.662 | 0.001234
372.89 K, 973.3 kPa, Gas, x2 = 0.16 | 0.002957
372.89 K, 1119 kPa, Gas, x2 = 0.266 | 0.002586
372.92 K, 975.7 kPa, Gas, x2 = 0.051 | 0.002912
372.92 K, 1354.3 kPa, Gas, x2 = 0.574 | 0.002167
372.92 K, 1381.3 kPa, Gas, x2 = 0.48 | 0.002076
372.93 K, 2291.9 kPa, Gas, x2 = 0.662 | 0.001235
